Source: the CheMixHub viscosity set
± gives the uncertainty stated by the source.

Experiment: xn = mol fraction of the nth substance listed
Conditions: 101.3 kPa

COC(C)=O + CCCCCCCCCC
298.15 K
Conditions	viscosity [mPa·s]
x1 = 0.0803	0.7987 ± 0.0072
x1 = 0.1876	0.7291 ± 0.0066
x1 = 0.3354	0.6485 ± 0.006
x1 = 0.4452	0.5969 ± 0.0055
x1 = 0.476	0.5809 ± 0.0054
x1 = 0.5538	0.5456 ± 0.0051
x1 = 0.618	0.5186 ± 0.0049
x1 = 0.7363	0.4714 ± 0.0046
x1 = 0.8315	0.4356 ± 0.0043

c1ccc2ncccc2c1 + Cc1cccc(O)c1
viscosity [mPa·s]
Conditions	x1 = 0.0998	x1 = 0.198	x1 = 0.3012	x1 = 0.3984	x1 = 0.4984	x1 = 0.5985	x1 = 0.6965	x1 = 0.798	x1 = 0.8948
298 K	15.26 ± 0.35	19.93 ± 0.52	25.3 ± 0.72	22.87 ± 0.62	15.79 ± 0.36	11.02 ± 0.19	7.376 ± 0.094	5.594 ± 0.047	4.358 ± 0.041
303 K	11.51 ± 0.22	15.03 ± 0.34	19.24 ± 0.49	17.85 ± 0.43	12.71 ± 0.24	8.925 ± 0.12	6.266 ± 0.058	4.872 ± 0.042	3.761 ± 0.033
308 K	8.895 ± 0.14	11.46 ± 0.21	15.1 ± 0.33	14.05 ± 0.29	9.986 ± 0.16	7.269 ± 0.082	5.301 ± 0.046	4.223 ± 0.037	3.291 ± 0.028
313 K	6.912 ± 0.084	8.917 ± 0.13	11.94 ± 0.22	11.42 ± 0.2	8.111 ± 0.11	6.172 ± 0.057	4.512 ± 0.042	3.686 ± 0.032	2.959 ± 0.025
318 K	5.586 ± 0.051	7.128 ± 0.083	9.595 ± 0.18	9.188 ± 0.16	6.608 ± 0.065	5.184 ± 0.048	3.835 ± 0.031	3.204 ± 0.029	2.62 ± 0.022
